The values that follow come from US12479816B2, “20-HETE formation inhibitors” (UNIVERSITY OF PITTSBURGH—OF THE COMMONWEALTH SYSTEM OF …, priority 2019, dated 2025).

Data set [1] concerns the target T1, rCYP4F2 (Homo sapiens, UniProt P78329).
T1 sequence (P78329 5-520): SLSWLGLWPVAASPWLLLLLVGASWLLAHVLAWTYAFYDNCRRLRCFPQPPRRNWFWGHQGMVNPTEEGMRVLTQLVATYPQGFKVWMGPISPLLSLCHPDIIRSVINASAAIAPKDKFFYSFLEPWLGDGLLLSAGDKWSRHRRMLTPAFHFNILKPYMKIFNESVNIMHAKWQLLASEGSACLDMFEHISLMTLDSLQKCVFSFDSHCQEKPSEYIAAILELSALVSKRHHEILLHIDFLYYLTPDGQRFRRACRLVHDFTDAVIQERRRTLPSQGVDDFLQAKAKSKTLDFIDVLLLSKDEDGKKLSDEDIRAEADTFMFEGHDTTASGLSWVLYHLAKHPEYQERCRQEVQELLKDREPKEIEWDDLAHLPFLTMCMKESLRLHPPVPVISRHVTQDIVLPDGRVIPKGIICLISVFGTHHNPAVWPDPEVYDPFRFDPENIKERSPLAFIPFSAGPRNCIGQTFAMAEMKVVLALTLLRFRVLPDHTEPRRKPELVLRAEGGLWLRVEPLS
The data set is described as follows: Inhibition of 20-HETE formation at 250 or 500 nM in rCYP4F2 incubations. It counts as biochemical. The conditions noted are these: 500 nM compound, rCYP4F2 25 pmol/mL; for inhibition at 0.5 µM: read-out: rCYP4F2 % inh. @ 500 nM. On the procedure:
(§1) To screen the inhibitory effects against 20-HETE formation, compounds were screened in HLM, RLM, RKM and rCYP4F2 microsomal incubations. Compounds dissolved in either 100% methanol or 100% DMSO to yield 10 mM stock solution. Microsomal incubations containing HLM, RLM, RKM (300 μg/ml) or rCYP4F2 (25 pmol/mL), AA (100 μM), NADPH (1 mM) treated with test compounds at various concentrations (500 nM or 250 nM) in a 1 ml total volume in incubation buffer (0.12 M potassium phosphate buffer containing 5 mM magnesium chloride). Reaction was started by adding NADPH to the incubates and was carried out at 37° C. in a shaking water bath for 20 min. Reaction was stopped by placing tubes on ice, followed by adding 125 μl 20-HETE-d6 as internal standard to each sample. Microsomal incubations were extracted with 3 ml ethyl ether twice, dried down under nitrogen gas and reconstituted in 125 μl 80:20 methanol:deionized H2O for analysis. 20-HETE formation was quantified using a validated UPLC-MS/MS assay and normalized by vehicle group. Each compound had three replications (n=3). Vehicle group was used as control to calculate percentage of 20-HETE formation rate. HET0016 (250 nM) was used as positive control. Incubates without NADPH group served as the negative control. An Acquity ultra performance LC autosampler (Waters, Milford, MA) was used to isolate 20-HETE on an UPLC BEH C18, 1.7 μm (2.1×100 mm) reversed-phase column (Waters, Milford, MA) protected by a guard column (2.1×5 mm; Waters, Milford, MA) of the same packing material. Column temperature was maintained at 55° C. Mobile phases consisted of 0.005% acetic acid, 5% acetonitrile in deionized water (A) and 0.005% acetic acid in acetonitrile (B). The flow rate for mobile phases is 0.5 ml/min. The initial mixture of mobile phase was 65:35 of A and B. Mobile phase B increased at 0.4 minutes after injection from 35% to 70% in a linear gradient over 4 minutes, and again increased to 95% over 0.5 minutes where it remained for 0.3 minutes. This was followed by a linear return to initial conditions over 0.1 minutes with a 1.5 minute pre-equilibration period prior to the next sample run. Total run time was 6.4 minutes for each injection. Injection volumes were 7.5 μl. Mass spectrometric analysis was carried out using a TSQ Quantum Ultra (Thermo Fisher Scientific, San Jose, CA) triple quadrupole mass spectrometer using heated electrospray ionization (HESI). Mass spectrometer was operated in negative selective reaction monitoring (SRM) mode with unit resolutions at both Q1 and Q3 set at 0.70 Da full width at half maximum. Scan time was set at 0.01 s and collision gas pressure was 1.3 mTorr. Quantitation of 20-HETE by SRM was performed by monitoring the m/z. Analytical data was acquired and analyzed using Xcaliber 3.0 data system (ThermoFinnigan, San Jose, CA).

Data set [2] deals with 20-HETE formation (CYP4) in RLM. The experiment in a line: Inhibition of 20-HETE formation at 250 or 500 nM in RLM microsomal incubations. It is filed as biochemical, rat. The conditions noted are these: 500 nM compound; RLM 300 μg/ml. How it is done:
as §1

The subject of data set [3] is 20-HETE formation (CYP4) in HLM. The data set is described as follows: Inhibition of 20-HETE formation at 250 or 500 nM in HLM microsomal incubations. It counts as biochemical, human. The note with it: 500 nM compound; HLM 300 μg/ml, AA 100 μM, 20 min. On the procedure: as §1
In data set [4] the test system is 20-HETE formation (CYP4) in RKM. The data set is described as follows: Inhibition of 20-HETE formation at 250 or 500 nM in RKM microsomal incubations. It counts as biochemical, rat. The conditions noted are these: 500 nM compound; RKM 300 μg/ml. How it is done: as §1
Data set [5] in a line: Turbidometric solubility determination. It counts as physicochemical. The conditions noted are these: PBS with 1% DMSO, aqueous buffer, kinetic from dmso stock, room temperature, OD620, read-out: Max Solub. How it is done: Solubility determinations shown in Table 3 were obtained turbidometrically and in a manner similar to the one described in Perez et al., J. Biomol. Screen, 2015, 20(2), 254-64. The method requires small volumes of 100× stock concentration drug solution to be prepared in DMSO 0, 0.23, 0.47, 0.94, 1.88, 3.75, 7.5, 15.0, 30.0 and […]. The stock drug concentrations are then diluted 1:100 added into triplicate wells containing PBS in a clear bottom 384 well microtiter to achieve final testing concentrations of 0, 2.3, 4.7, 9.4, 18.8, 37.5, 75, 150, 300, 600 μM in 1% DMSO. The plate is allowed to equilibrate with constant shaking for 2 hours at room temperature. The plate is then placed in a SpectroMax V plate reader to measure absorbance at 620 nm. Increase in absorbance is evident in test wells which precipitation of the compound is evident. The plot of OD620 vs. drug concentration is used to calculate the maximum solubility limit as determined by a statistically significant increase in absorbance above the background levels.

≈ marks a conversion by molar mass, not a printed value. Where only a bound is given, the exact number is not on record here.

Take `c1cnc(N2CCN(c3cn[nH]c3)CC2)nc1` [Compound 4, 2-(4-(1H-Pyrazol-4-yl)piperazin-1-yl)pyrimidine]: the inhibition at 0.5 µM in data set [1] stood at 0%. Also, the “RLM % inh. @ 500 nM” value in data set [2] worked out at 0.00%. In addition, the “HLM % inh. @ 500 nM” value in data set [3] came out at 0.00%. Besides, the “RKM % inh. @ 500 nM” value in data set [4] is given as 0.00%.
Take `COc1ccc(C2CCN(c3ccn[nH]3)CC2)c(Cl)c1` [Compound 66, 4-(2-Chloro-4-methoxyphenyl)-1-(1H-pyrazol-5-yl)piperidine]: the inhibition at 0.5 µM in data set [1] was determined as 58%. Further, the “RLM % inh. @ 500 nM” value in data set [2] amounted to 0.00%. Besides, the “HLM % inh. @ 500 nM” value in data set [3] came out at 36%. The solubility at 2 h in data set [5] was determined as 133 µM (≈ 38.8 µg/mL).
On to `COc1ccc(C2CCN(c3ccn[nH]3)CC2)cc1Cl` [Compound 67, 4-(3-Chloro-4-methoxyphenyl)-1-(1H-pyrazol-5-yl)piperidine], for which the inhibition at 0.5 µM in data set [1] was determined as 90.9%. In addition, the “RLM % inh. @ 500 nM” value in data set [2] is listed as 30.20%. Moreover, in data set [3], the “HLM % inh. @ 500 nM” value is listed as 83.2%. Also, the solubility at 2 h in data set [5] turned out to be 205 µM (≈ 59.8 µg/mL).
For `Fc1ccc(SC2CCN(c3cn[nH]c3)CC2)cc1` [Compound 70, 4-((4-Fluorophenyl)thio)-1-(1H-pyrazol-4-yl)piperidine], the inhibition at 0.5 µM in data set [1] is 80.5%. For the same compound, the “RLM % inh. @ 500 nM” value in data set [2] stood at 35.70%. Moreover, the “HLM % inh. @ 500 nM” value in data set [3] stood at 84.8%. Besides, the solubility at 2 h in data set [5] was 109 µM (≈ 30.2 µg/mL).
Take `CC(=O)N(C)c1ccc(C2CCN(c3ccn[nH]3)CC2)c(F)c1` [Compound 71, N-(4-(1-(1H-Pyrazol-5-yl)piperidin-4-yl)-3-fluorophenyl)-N-methylacetamide]: the inhibition at 0.5 µM in data set [1] was 52.2%. Further, the “RLM % inh. @ 500 nM” value in data set [2] is on record as 25.00%. The “HLM % inh. @ 500 nM” value in data set [3] was 82%. The solubility at 2 h in data set [5] was more than 600 µM.
Consider `COc1cc(F)cc(C2CCN(c3cn[nH]c3)CC2)c1` [Compound 72, 4-(3-Fluoro-5-methoxyphenyl)-1-(1H-pyrazol-4-yl)piperidine], for which the inhibition at 0.5 µM in data set [1] was 77%. In data set [2], the “RLM % inh. @ 500 nM” value turned out to be 11.00%. In addition, the “HLM % inh. @ 500 nM” value in data set [3] was determined as 77%. In data set [5], the solubility at 2 h amounted to 234 µM (≈ 64.4 µg/mL).
As for `COc1cc(F)cc(C2CCN(c3ccn[nH]3)CC2)c1` [Compound 73, 4-(3-Fluoro-5-methoxyphenyl)-1-(1H-pyrazol-5-yl)piperidine], in data set [1], the inhibition at 0.5 µM amounted to 54.7%. Further, the “RLM % inh. @ 500 nM” value in data set [2] came to 0.00%. The “HLM % inh. @ 500 nM” value in data set [3] amounted to 61%. The solubility at 2 h in data set [5] was determined as 164 µM (≈ 45.2 µg/mL).
The matching figures for `COc1cc(C2CCN(c3ccn[nH]3)CC2)ccc1F` [Compound 74, 4-(4-Fluoro-3-methoxyphenyl)-1-(1H-pyrazol-5-yl)piperidine]: 32%, 0.00%, 55% and 201 µM (≈ 55.3 µg/mL).
On the same counts, the results for `COc1cc(C2CCN(c3cn[nH]c3)CC2)ccc1F` [Compound 75, 4-(4-Fluoro-3-methoxyphenyl)-1-(1H-pyrazol-4-yl)piperidine] are 74.5%, 0.00%, 61.10% and 127 µM (≈ 35 µg/mL).
On to `COc1ccc(SC2CCN(c3cn[nH]c3)CC2)cc1` [Compound 80, 4-((4-Methoxyphenyl)thio)-1-(1H-pyrazol-4-yl)piperidine], for which the inhibition at 0.5 µM in data set [1] was found to be 90%. For the same compound, the “RLM % inh. @ 500 nM” value in data set [2] amounted to 42.00%. The “HLM % inh. @ 500 nM” value in data set [3] worked out at 86%. The solubility at 2 h in data set [5] turned out to be 89 µM (≈ 25.8 µg/mL).
On the same counts, the results for `O=C1CCCN1Cc1ccc(C2CCN(c3ccn[nH]3)CC2)cc1` [Compound 84, 1-(4-(1-(1H-Pyrazol-5-yl)piperidin-4-yl)benzyl)pyrrolidin-2-one] are 80.3%, 42.70%, 79.4% and more than 600 µM.
As for `CS(=O)(=O)Cc1ccc(C2CCN(c3cn[nH]c3)CC2)cc1` [Compound 89, 4-(4-((methylsulfonyl)methyl)phenyl)-1-(1H-pyrazol-4-yl)piperidine], the inhibition at 0.5 µM in data set [1] is 72.9%. The “RLM % inh. @ 500 nM” value in data set [2] is recorded as 0.00%. Further, in data set [3], the “HLM % inh. @ 500 nM” value came out at 34.8%. Moreover, the solubility at 2 h in data set [5] was determined as 324 µM (≈ 104 µg/mL).
Consider `O=C1CCCN1c1ccc(CC2CCN(c3cn[nH]c3)CC2)cc1` [Compound 107, 1-(4-((1-(1H-Pyrazol-4-yl)piperidin-4-yl)methyl)phenyl)pyrrolidin-2-one], for which, in data set [1], the inhibition at 0.5 µM was 82.3%. For the same compound, in data set [2], the “RLM % inh. @ 500 nM” value is listed as 63.60%. Besides, the “HLM % inh. @ 500 nM” value in data set [3] was found to be 78.90%. Also, in data set [5], the solubility at 2 h is 216 µM (≈ 70.1 µg/mL).
On the same counts, the results for `O=S1(=O)Cc2ccc(C3CCN(c4cn[nH]c4)CC3)cc2C1` [Compound 108, 5-(1-(1H-Pyrazol-4-yl)piperidin-4-yl)-1,3-dihydrobenzo[c]thiophene 2,2-dioxide] are 83%, 41.70%, 90.00% and 187 µM (≈ 59.4 µg/mL).
For `O=C1CCCN1Cc1ccc(C2CCN(c3ccn[nH]3)CC2)cc1F` [Compound 110, 1-(4-(1-(1H-Pyrazol-5-yl)piperidin-4-yl)-2-fluorobenzyl)pyrrolidin-2-one], in data set [1], the inhibition at 0.5 µM worked out at 84.1%. Besides, the “RLM % inh. @ 500 nM” value in data set [2] was found to be 63.60%. Besides, in data set [3], the “HLM % inh. @ 500 nM” value stood at 80.4%. In data set [5], the solubility at 2 h turned out to be 421 µM (≈ 144 µg/mL).
On the same counts, the results for `O=S(=O)(Nc1ccc(C2CCN(c3cn[nH]c3)CC2)cc1)C1CC1` [Compound 114, N-(4-(1-(1H-pyrazol-4-yl)piperidin-4-yl)phenyl)cyclopropanesulfonamide] are 87.4%, 36.70%, 68.7% and 74 µM (≈ 25.6 µg/mL).
With `Cl.Clc1ccc(CC2CCN(c3cn[nH]c3)CC2)cc1` [Compound 115, 4-(4-Chlorobenzyl)-1-(1H-pyrazol-4-yl)piperidine hydrochloride], the “rCYP4F2 % inh. @ 500 nM” value in data set [1] is reported as 84.20%. Moreover, the “RLM % inh. @ 500 nM” value in data set [2] amounted to 74.30%. For the same compound, the “HLM % inh. @ 500 nM” value in data set [3] was 85.50%. In addition, the solubility at 2 h in data set [5] came out at 74 µM.
